Reference: publication PMC6814258 (Pharmaceutical research, 2019)
Where a name gives a salt, the structure may show the parent alone.

Tests used:
Nav1.8 = Nav1.8 (Homo sapiens, UniProt Q9Y5Y9); assay: Nav1.8 FLIPR HTS; assay type: cell-based; conditions: HEK293, read-out: Average percent inhibition at 10 μM (Nav1.8)
human KV7.1 = human KV7.1 (Homo sapiens, UniProt P51787); assay: KV7.1 86Rb+ efflux HTS; assay type: cell-based; conditions: for inhibition at 10 µM: CHO, read-out: Average percent inhibition at 10 μM (KCNQ1); for Average percent inhibition at 10 μM (KCNQ1): n=2, CHO cells, 86Rb+ efflux, normalized to 10 μM chromanol 293B control
Chain of human KV7.1 (P51787 whole entry): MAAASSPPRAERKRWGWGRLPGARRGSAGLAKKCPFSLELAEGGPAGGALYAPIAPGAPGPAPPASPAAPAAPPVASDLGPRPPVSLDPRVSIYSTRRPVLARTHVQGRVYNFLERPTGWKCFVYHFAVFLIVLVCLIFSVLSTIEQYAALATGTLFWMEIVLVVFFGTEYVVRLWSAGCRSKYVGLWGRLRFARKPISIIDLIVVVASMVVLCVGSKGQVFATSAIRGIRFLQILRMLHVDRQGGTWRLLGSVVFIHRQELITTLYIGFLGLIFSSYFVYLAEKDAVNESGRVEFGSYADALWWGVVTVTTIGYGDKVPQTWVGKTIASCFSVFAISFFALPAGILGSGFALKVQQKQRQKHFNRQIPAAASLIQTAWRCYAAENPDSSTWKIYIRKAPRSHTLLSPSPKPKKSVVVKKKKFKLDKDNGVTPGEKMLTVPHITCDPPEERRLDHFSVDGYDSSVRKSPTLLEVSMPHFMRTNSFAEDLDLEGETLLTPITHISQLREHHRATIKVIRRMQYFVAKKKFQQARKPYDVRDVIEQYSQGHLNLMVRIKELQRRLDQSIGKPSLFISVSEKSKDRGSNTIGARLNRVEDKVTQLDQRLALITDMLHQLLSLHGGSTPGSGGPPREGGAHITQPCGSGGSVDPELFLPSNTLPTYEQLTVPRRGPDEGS

Chain of Nav1.8 (Q9Y5Y9 whole entry): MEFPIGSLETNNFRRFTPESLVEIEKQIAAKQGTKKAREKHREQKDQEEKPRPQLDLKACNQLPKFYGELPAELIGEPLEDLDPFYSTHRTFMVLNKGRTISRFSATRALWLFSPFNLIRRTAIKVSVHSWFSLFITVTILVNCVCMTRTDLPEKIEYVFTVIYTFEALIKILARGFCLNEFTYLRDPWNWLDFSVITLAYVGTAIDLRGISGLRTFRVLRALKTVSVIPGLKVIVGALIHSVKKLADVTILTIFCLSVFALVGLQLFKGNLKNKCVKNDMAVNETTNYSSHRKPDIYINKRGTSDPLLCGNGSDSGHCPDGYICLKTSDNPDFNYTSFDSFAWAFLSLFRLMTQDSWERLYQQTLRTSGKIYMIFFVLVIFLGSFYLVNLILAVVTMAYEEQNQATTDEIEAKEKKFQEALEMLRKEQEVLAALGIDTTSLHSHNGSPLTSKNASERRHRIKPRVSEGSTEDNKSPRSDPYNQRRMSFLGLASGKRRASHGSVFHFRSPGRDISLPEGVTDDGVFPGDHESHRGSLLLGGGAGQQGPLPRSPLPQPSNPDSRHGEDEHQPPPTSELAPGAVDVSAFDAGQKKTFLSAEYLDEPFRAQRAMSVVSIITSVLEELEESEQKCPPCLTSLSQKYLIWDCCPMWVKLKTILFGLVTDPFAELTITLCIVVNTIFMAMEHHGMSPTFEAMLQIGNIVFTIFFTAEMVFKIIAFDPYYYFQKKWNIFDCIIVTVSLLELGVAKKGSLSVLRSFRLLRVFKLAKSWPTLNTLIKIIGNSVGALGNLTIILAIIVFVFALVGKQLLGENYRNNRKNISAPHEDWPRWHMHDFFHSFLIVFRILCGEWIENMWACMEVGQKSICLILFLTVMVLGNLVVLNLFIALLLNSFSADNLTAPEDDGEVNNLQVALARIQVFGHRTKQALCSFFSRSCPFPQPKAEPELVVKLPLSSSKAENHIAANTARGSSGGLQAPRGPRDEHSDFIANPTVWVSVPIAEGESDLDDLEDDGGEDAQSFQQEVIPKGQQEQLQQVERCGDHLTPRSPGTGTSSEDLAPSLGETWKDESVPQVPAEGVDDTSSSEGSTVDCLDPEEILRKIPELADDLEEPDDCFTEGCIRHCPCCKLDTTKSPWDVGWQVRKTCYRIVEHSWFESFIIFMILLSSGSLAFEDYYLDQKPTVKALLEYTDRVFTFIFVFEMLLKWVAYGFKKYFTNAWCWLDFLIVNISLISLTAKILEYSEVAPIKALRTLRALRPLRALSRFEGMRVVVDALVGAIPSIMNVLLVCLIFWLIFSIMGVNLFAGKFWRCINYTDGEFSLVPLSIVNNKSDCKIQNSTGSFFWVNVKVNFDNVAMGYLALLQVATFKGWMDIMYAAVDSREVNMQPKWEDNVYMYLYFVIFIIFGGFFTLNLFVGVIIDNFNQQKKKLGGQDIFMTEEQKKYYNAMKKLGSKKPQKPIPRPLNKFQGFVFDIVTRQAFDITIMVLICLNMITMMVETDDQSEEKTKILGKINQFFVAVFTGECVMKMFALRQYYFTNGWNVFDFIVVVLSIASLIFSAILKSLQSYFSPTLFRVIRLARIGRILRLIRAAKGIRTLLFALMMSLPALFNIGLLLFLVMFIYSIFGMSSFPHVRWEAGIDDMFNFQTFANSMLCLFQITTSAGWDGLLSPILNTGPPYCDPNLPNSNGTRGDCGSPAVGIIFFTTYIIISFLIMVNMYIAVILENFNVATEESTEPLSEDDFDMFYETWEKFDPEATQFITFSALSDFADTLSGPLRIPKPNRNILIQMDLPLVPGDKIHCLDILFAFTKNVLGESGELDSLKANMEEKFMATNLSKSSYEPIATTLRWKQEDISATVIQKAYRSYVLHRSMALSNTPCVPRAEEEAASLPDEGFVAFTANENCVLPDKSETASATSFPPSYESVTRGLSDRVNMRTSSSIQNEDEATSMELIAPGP

Structure (SMILES)	inhibition at 10 µM (Nav1.8) [%]	further results
CCN(CC)CCOC(=O)C(c1ccccc1)c1ccccc1 [Adiphenine hydrochloride]	90.4	–
COc1ccc(-c2cc(=S)ss2)cc1 [Anethole-trithione]	78.5	–
CCOC(=O)[C@H](CCc1ccccc1)N[C@H]1CCc2ccccc2N(CC(=O)O)C1=O [Benazepril hydrochloride]	–	inhibition at 10 µM (human KV7.1): 44.8%
CCCCOc1cc(C(=O)OCCN(CC)CC)ccc1N [Benoxinate hydrochloride]	83.7	–
O=C(CCCN1CCC(n2c(O)nc3ccccc32)CC1)c1ccc(F)cc1 [Benperidol]	84.2	–
CCc1oc2ccccc2c1C(=O)c1cc(Br)c(O)c(Br)c1 [Benzbromarone]	–	inhibition at 10 µM (human KV7.1): 58.1%
CCCCNc1ccc(C(=O)OCCOCCOCCOCCOCCOCCOCCOCCOCCOC)cc1 [Benzonatate]	79.9	–
CN(C)CCCOc1nn(Cc2ccccc2)c2ccccc12 [Benzydamine hydrochloride]	83.6	–
CC(C)COCC(CN(Cc1ccccc1)c1ccccc1)N1CCCC1 (stereo not shown) [Bepridil hydrochloride]	89.1	–
Clc1ccc(CCC(Cn2ccnc2)Sc2c(Cl)cccc2Cl)cc1 (stereo not shown) [Butoconazole nitrate]	–	inhibition at 10 µM (human KV7.1): 67%
CCCCCCNC(=O)n1cc(F)c(=O)[nH]c1=O [Carmofur]	124	–
COc1ccccc1OCCNCC(O)COc1cccc2[nH]c3ccccc3c12 (stereo not shown) [Carvedilol]	104	–
CN(C)CC/C=C1/c2ccccc2Sc2ccc(Cl)cc21 [Chlorprothixene hydrochloride]	77.4	–
Clc1ccccc1C(c1ccccc1)(c1ccccc1)n1ccnc1 [Clotrimazole]	–	inhibition at 10 µM (human KV7.1): 46.3%
CN1CCN(C(c2ccccc2)c2ccccc2)CC1.Cl [Cyclizine hydrochloride]	–	Average percent inhibition at 10 μM (KCNQ1) (human KV7.1): 45.9%
NS(=O)(=O)c1cc2c(cc1Cl)NC(CC1CCCC1)NS2(=O)=O (stereo not shown) [Cyclopenthiazide]	–	inhibition at 10 µM (human KV7.1): 68.3%
CC(=O)O[C@H]1CC[C@@]2(C)C(=CC[C@@H]3[C@@H]2CC[C@]2(C)C(=O)CC[C@@H]32)C1 [Dehydroisoandosterone 3-acetate]	–	Average percent inhibition at 10 μM (KCNQ1) (human KV7.1): 52.9%
CCCCOc1cc(C(=O)NCCN(CC)CC)c2ccccc2n1 [Dibucaine]	79.4	–
C/C=C(/C(=C/C)c1ccc(O)cc1)c1ccc(O)cc1 [Dienestrol]	–	inhibition at 10 µM (human KV7.1): 61.3%
CCCCc1cc2ccccc2c(OCCN(C)C)n1 [Dimethisoquin hydrochloride]	75.5	–
COc1ccc(C(=O)c2ccccc2O)c(O)c1 [Dioxybenzone]	100	–
O=C(Nc1ccccc1)OCC(CN1CCCCC1)OC(=O)Nc1ccccc1 (stereo not shown) [Diperodon hydrochloride]	92.2	–
COc1cc2nc(N3CCN(C(=O)C4COc5ccccc5O4)CC3)nc(N)c2cc1OC (stereo not shown) [Doxazosin mesylate]	76.1	–
CN(C)CCC=C1c2ccccc2COc2ccccc21 [Doxepin hydrochloride]	88.7	–
CCN(CC)CCOC(=O)C(c1ccccc1)C1CCCCC1 (stereo not shown) [Drofenine hydrochloride]	76.8	–
O=C(CCCN1CC=C(n2c(=O)[nH]c3ccccc32)CC1)c1ccc(F)cc1 [Droperidol]	87.6	–
CCCCOc1ccc(C(=O)CCN2CCCCC2)cc1 [Dyclonine hydrochloride]	99	–

Structure (SMILES)	inhibition at 10 µM (Nav1.8) [%]	further results
Clc1ccc(COC(Cn2ccnc2)c2ccc(Cl)cc2Cl)cc1 (stereo not shown) [Econazole nitrate]	–	inhibition at 10 µM (human KV7.1): 85.6%
O=C1Nc2ccc(Cl)cc2[C@@](C#CC2CC2)(C(F)(F)F)O1 [Efavirenz]	–	inhibition at 10 µM (human KV7.1): 80.3%
C[C@]12CC[C@H]3C(=CCc4cc(O)ccc43)[C@@H]1CCC2=O [Equilin]	–	inhibition at 10 µM (human KV7.1): 64.6%
C[C@]12CC[C@@H]3c4ccc(O)cc4CC[C@H]3[C@@H]1CC[C@@H]2O [Estradiol-17 beta]	–	Average percent inhibition at 10 μM (KCNQ1) (human KV7.1): 56.3%
C[C@]12CC[C@@H]3c4ccc(O)cc4CC[C@H]3[C@@H]1CCC2=O [Estrone]	78.2	–
CCOc1ccc(Cc2nccc3cc(OCC)c(OCC)cc23)cc1OCC [Ethaverine hydrochloride]	–	inhibition at 10 µM (human KV7.1): 86.9%
C#C[C@]1(O)CC[C@H]2[C@@H]3CCc4cc(O)ccc4[C@H]3CC[C@@]21C [Ethinylestradiol]	–	inhibition at 10 µM (human KV7.1): 75.8%
CCN(CC)C(C)CN1c2ccccc2Sc2ccccc21 (stereo not shown) [Ethopropazine hydrochloride]	85.5	–
C#C[C@]1(OC(C)=O)CC[C@H]2[C@@H]3CCC4=C[C@@H](OC(C)=O)CC[C@@H]4[C@H]3CC[C@@]21C [Ethynodiol diacetate]	–	inhibition at 10 µM (human KV7.1): 88%
O=C(OCCOCCO)c1ccccc1Nc1cccc(C(F)(F)F)c1 [Etofenamate]	–	inhibition at 10 µM (human KV7.1): 51.8%
CC(C)c1c(CN(C)C(C)Cc2ccccc2)n(C)n(-c2ccccc2)c1=O (stereo not shown) [Famprofazone]	–	inhibition at 10 µM (human KV7.1): 50.7%
NC(=O)OCC(COC(N)=O)c1ccccc1 [Felbamate]	78.6	–
CC(NCCC(c1ccccc1)c1ccccc1)c1ccccc1 (stereo not shown) [Fendiline hydrochloride]	91.3	–
CC(C)OC(=O)C(C)(C)Oc1ccc(C(=O)c2ccc(Cl)cc2)cc1 [Fenofibrate]	–	inhibition at 10 µM (human KV7.1): 64%
CC(Cc1ccc(O)cc1)NCC(O)c1cc(O)cc(O)c1 (stereo not shown) [Fenoterol hydrobromide]	78.3	–
CS(=O)(=O)c1ccc([C@@H](O)[C@@H](CF)NC(=O)C(Cl)Cl)cc1 [Florfenicol]	77.5	–
Fc1ccc(C(c2ccc(F)cc2)N2CCN(C/C=C/c3ccccc3)CC2)cc1 [Flunarizine dihydrochloride]	96.6	–
CN1CCCN(C(c2ccccc2)c2ccc(Cl)cc2)CC1.Cl.Cl (stereo not shown) [Homochlorcyclizine dihydrochloride]	–	Average percent inhibition at 10 μM (KCNQ1) (human KV7.1): 43.5%
COC1=C(OC)C(=O)C(CCCCCCCCCCO)=C(C)C1=O [Idebenone]	–	inhibition at 10 µM (human KV7.1): 59%
Clc1ccc(C(Cn2ccnc2)OCc2c(Cl)cccc2Cl)c(Cl)c1 (stereo not shown) [Isoconazole]	–	inhibition at 10 µM (human KV7.1): 61.2%
CC(C)(C)NC[C@H](O)c1ccc(O)c(CO)c1 [Levalbuterol hydrochloride]	85.3	–
C[C@H](N)[C@H](O)c1ccc(O)c(O)c1 [Levonordefrin]	107	–
CCC(=O)O[C@@](Cc1ccccc1)(c1ccccc1)[C@@H](C)CN(C)C [Levopropoxyphene napsylate]	95.1	–
Cc1cccc(C)c1NC(=O)CN1CCN(CCCC(c2ccc(F)cc2)c2ccc(F)cc2)CC1 [Lidoflazine]	92.7	–
Cc1cccc(C)c1OCC(=O)N[C@@H](Cc1ccccc1)[C@@H](O)C[C@H](Cc1ccccc1)NC(=O)[C@H](C(C)C)N1CCCNC1=O [Lopinavir]	76.8	–
O=c1cc(-c2ccc(O)c(O)c2)oc2cc(O)cc(O)c12 [Luteolin]	86.2	–
CCOC(=O)Nc1ccc2c(c1)N(C(=O)CCN1CCOCC1)c1ccccc1S2 [Moricizine hydrochloride]	75.8	–

Structure (SMILES)	inhibition at 10 µM (Nav1.8) [%]	further results
CN(C/C=C/c1ccccc1)Cc1cccc2ccccc12 [Naftifine hydrochloride]	96.1	–
OC(CNCC(O)C1CCc2cc(F)ccc2O1)C1CCc2cc(F)ccc2O1 (stereo not shown) [Nebivolol hydrochloride]	82.7	–
CCc1nn(CCCN2CCN(c3cccc(Cl)c3)CC2)c(=O)n1CCOc1ccccc1 [Nefazodone hydrochloride]	88.5	–
CO[C@]12C[C@@H](COC(=O)c3cncc(Br)c3)CN(C)[C@@H]1Cc1cn(C)c3cccc2c13 [Nicergoline]	82.3	–
CNCCC=C1c2ccccc2CCc2ccccc21 [Nortriptyline hydrochloride]	85.9	–
CN(C(=O)CN(CCO)CC(=O)N(C)C(C)(C)Cc1ccccc1)C(C)(C)Cc1ccccc1 [Oxethazaine]	92.9	–
CCN(CC)CC#CCOC(=O)C(O)(c1ccccc1)C1CCCCC1 (stereo not shown) [Oxybutynin chloride]	77.3	–
C1CCC(C(CC2CCCCN2)C2CCCCC2)CC1 (stereo not shown) [Perhexiline maleate]	79.2	–
O=C1[C@H]2CCCC[C@H]2C(=O)N1CCCCN1CCN(c2nsc3ccccc23)CC1 [Perospirone]	89.7	–
CC(COc1ccccc1)N(CCCl)Cc1ccccc1 (stereo not shown) [Phenoxybenzamine hydrochloride]	86.1	–
CN1CCC(=C2c3ccccc3Sc3ccccc32)CC1 [Pimethixene maleate]	88.5	–
O=c1[nH]c2ccccc2n1C1CCN(CCCC(c2ccc(F)cc2)c2ccc(F)cc2)CC1 [Pimozide]	101	–
CN(C)CCCN1c2ccccc2Sc2ccccc21 [Promazine hydrochloride]	88.1	–
CC(CN1c2ccccc2Sc2ccccc21)N(C)C (stereo not shown) [Promethazine hydrochloride]	78.5	–
CCCOc1ccc(C(=O)OCCN(CC)CC)cc1N [Proparacaine hydrochloride]	103	–
CNCCCC1c2ccccc2C=Cc2ccccc21 [Protriptyline hydrochloride]	80	–
CC(C)(C)NCC(O)c1ccc(O)c(CO)c1 (stereo not shown) [Salbutamol]	78	–
OCc1cc(C(O)CNCCCCCCOCCCCc2ccccc2)ccc1O (stereo not shown) [Salmeterol]	99.6	–
CC(C)(C)NC(=O)[C@@H]1C[C@@H]2CCCC[C@@H]2CN1C[C@@H](O)[C@H](Cc1ccccc1)NC(=O)[C@H](CC(N)=O)NC(=O)c1ccc2ccccc2n1 [Saquinavir mesylate]	92.8	–
O=C(CCCN1CCC2(CC1)C(=O)NCN2c1ccccc1)c1ccc(F)cc1 [Spiperone]	82	–
CCCCCCCCNC(C)C(O)c1ccc(SC(C)C)cc1 (stereo not shown) [Suloctidil]	93.8	–
[H]/N=C(/NCCCCC)N/N=C/c1c[nH]c2ccc(OC)cc12 [Tegaserod maleate]	98.3	–
CN1CCN(CCCN2c3ccccc3Sc3ccc(C(F)(F)F)cc32)CC1 [Trifluoperazine dihydrochloride]	79.1	–
CCC(COC(=O)c1cc(OC)c(OC)c(OC)c1)(c1ccccc1)N(C)C (stereo not shown) [Trimebutine]	88.7	–
CCOC(=O)C1=C[C@]2(CC)CCCN3CCc4c(n1c1ccccc41)[C@@H]32 [Vinpocetine]	93.4	–
